Legend:
[1] = tested on: SMN protein in spinal muscular atrophy (SMA) patient fibroblasts (GM03813, Coriell); experiment: SMN protein assay, Mesoscale Discovery (MSD); type: cell-based, human; details: SMA patient fibroblasts GM03813, 48 hours, MSD; read-out: SMN2 protein EC50
In short: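 Absolute SMN levels were quantified by MSD against an SMN protein standard curve (1 μg/ml to 19.5 pg/ml) run on each plate. Samples were lysates of GM03813 patient fibroblasts (7000 cells/well) treated 48 hours with compound doses from 2.5 μM down to 0.6 nM.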

MDR1 (P-gp) = experiment: Blood-brain-barrier (BBB) penetration potential via MDCK-MDR1 permeability assay; details: dog; for Papp A→B at 120 min, 5 μM: MDCK-MDR1, pH 7.4, MDCK-MDR1: Papp A-B, A-B direction; for Papp B→A at 120 min, 5 μM: MDCK-MDR1, pH 7.4, MDCK-MDR1: Papp B-A, B-A direction
MDR1 = experiment: as above; details: dog, MDCK-MDR1, pH 7.4, MDCK-MDR1: Efflux, efflux ratio
[2] = tested on: MDR1-MDCK cell monolayers; experiment: as above; details: for MDCK-MDR1: % Recov A-B: A-B direction; for MDCK-MDR1: % Recov B-A: B-A direction
[3] = tested on: SMN FL and SMN Δ7 in spinal muscular atrophy (SMA) patient fibroblasts (GM03813, Coriell); experiment: Quantitative splicing assay (SMN), qPCR; type: cell-based, human; details: Homo sapiens, Fibroblast, 24 h, SMA patient fibroblasts GM03813, 24 h, qPCR; read-out: SMN2 Splicing FL EC50
Experimental: Spinal muscular atrophy (SMA) patient fibroblasts (GM03813, Coriell) are plated in 96-well plates at 50,000 cells/well. […] Treated cells are lysed and cDNA synthesized using the Fast Advanced Cells-to-Ct kit (Thermofisher A35378) according to the manufacturer's instructions. 2 μL of each cDNA are used in qPCR reactions. […] Reactions are run in a Quant Studio 6 qPCR instrument with default settings.

[4] = tested on: mHTT protein in GM04724 (CAG 70/20) Huntington's disease patient lymphoblast cells; experiment: mHTT protein assay, 2B7-MW1 assay via Mesoscale Discovery (MSD); type: cell-based, human; details: GM04724 Huntington's disease patient lymphoblasts
In short: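 Signal from the 2B7-MW1 antibody pair on MSD, rising with polyQ length and smaller HTT fragments, measured mHTT after 48 h compound exposure (0.6 nM–10 μM) in GM04724 cells. A parallel replicate plate gave CellTiter Glo viability.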

[5] = Quantitative splicing assay (HTT), qPCR; type: cell-based, human; details: Homo sapiens, GM04724, 24 h, GM04724 lymphoblasts, qPCR, read-out: HTT Splicing: E49-50 EC50
In short: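 TaqMan qPCR on cell-lysate cDNA quantifies cryptic-exon inclusion from HTT intron 49. Lymphoblasts plated at 50,000 cells/well had received compound for 24 h, 0.15 nM-2.5 uM range, 0.1% DMSO.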

| Structure (SMILES) | EC50 [1] [nM] | Papp A→B at 120 min, 5 μM (MDR1 (P-gp)) [×10⁻⁶ cm/s] | Papp B→A at 120 min, 5 μM (MDR1 (P-gp)) [×10⁻⁶ cm/s] | efflux ratio at 120 min, 5 μM (MDR1) | MDCK-MDR1: % Recov A-B [2] [%] | MDCK-MDR1: % Recov B-A [2] [%] | EC50 [3] [nM] | EC50 [4] [nM] | EC50 [5] [nM] |
| --- | --- | --- | --- | --- | --- | --- | --- | --- | --- |
| COc1cnc(-c2ccc(-c3ccc(N(C)[C@H]4C[C@@H]5CCC[C@@H](N5)[C@H]4F)nn3)c(O)c2)cn1 [Compound 29B, 2-(6-(((1R,2R,3S,5S)-2-fluoro-9-azabicyclo[3.3.1]nonan-3-yl)(methyl)amino)pyridazin-3-yl)-5-(5-methoxypyrazin-2-yl)phenol] | 0.01 to 15 | 1.54 | 5.63 | 4 | 21 | 48 | 501 to 10000 | 0.01 to 15 | 16 to 50 |
| C#Cc1ccc(-c2ccc(N(C)[C@H]3C[C@@H]4CC[C@@H](N4)[C@H]3F)nn2)c(O)c1 [Compound 10B, 5-ethynyl-2-(6-(((1R,2R,3S,5S)-2-fluoro-8-azabicyclo[3.2.1]octan-3-yl)(methyl)amino)pyridazin-3-yl)phenol] | 0.01 to 15 | 11.2 | 21.2 | 2 | 52 | 82 | 51 to 100 | 51 to 100 | 51 to 100 |
| CN(c1ccc(-c2ccc(-c3cnn(C)c3)cc2O)nn1)[C@@H]1C[C@H]2CCC[C@H](N2)[C@H]1F [Compound 14A, 2-(6-(((1S,2R,3R,5R)-2-fluoro-9-azabicyclo[3.3.1]nonan-3-yl)(methyl)amino)pyridazin-3-yl)-5-(1-methyl-1H-pyrazol-4-yl)phenol] | 0.01 to 15 | 3 | 42.4 | 14 | 59 | 83 | 51 to 100 | 16 to 50 | 16 to 50 |
| CN(c1ccc(-c2cc3cccnc3cc2O)nn1)[C@@H]1C[C@H]2CCC[C@H](N2)[C@@H]1F [Compound 41A, 6-(6-(((1S,2S,3R,5R)-2-fluoro-9-azabicyclo[3.3.1]nonan-3-yl)(methyl)amino)pyridazin-3-yl)quinolin-7-ol] | 0.01 to 15 | 2 | 48.1 | 24 | 64 | 98 | 16 to 50 | 0.01 to 15 | 51 to 100 |
| CN(c1ccc(-c2cc3cccnc3cc2O)nn1)[C@H]1C[C@@H]2CCC[C@@H](N2)[C@H]1F [Compound 41B, 6-(6-(((1R,2R,3S,5S)-2-fluoro-9-azabicyclo[3.3.1]nonan-3-yl)(methyl)amino)pyridazin-3-yl)quinolin-7-ol] | 0.01 to 15 | 2.57 | 36.7 | 14 | 60 | 95 | 16 to 50 | 0.01 to 15 | 16 to 50 |
| CN(c1ccc(-c2ccc(-n3ccnc3)cc2O)nn1)[C@@H]1C[C@H]2CC[C@H](N2)[C@@H]1F [Compound 4A, 2-(6-(((1S,2S,3R,5R)-2-fluoro-8-azabicyclo[3.2.1]octan-3-yl)(methyl)amino)pyridazin-3-yl)-5-(1H-imidazol-1-yl)phenol] | 0.01 to 15 | 2.75 | 44.8 | 16 | 86 | 73 | 51 to 100 | 16 to 50 | 16 to 50 |
| CN(c1ccc(-c2cc(F)c(-c3ccoc(=O)c3)cc2O)nn1)[C@H]1C[C@@H]2CC[C@@H](N2)[C@H]1F [Compound 17B, 4-(2-fluoro-4-(6-(((1R,2R,3S,5S)-2-fluoro-8-azabicyclo[3.2.1]octan-3-yl)(methyl)amino)pyridazin-3-yl)-5-hydroxyphenyl)-2H-pyran-2-one] | 16 to 50 | 1.91 | 36.8 | 19 | 62 | 79 | 51 to 100 | 16 to 50 | 16 to 50 |
| CN(c1ccc(-c2cc3ccn(C)c(=O)c3cc2O)nn1)[C@@H]1C[C@H]2CC[C@H](N2)[C@@H]1F [Compound 84A, 6-(6-(((1S,2S,3R,5R)-2-fluoro-8-azabicyclo[3.2.1]octan-3-yl)(methyl)amino)pyridazin-3-yl)-7-hydroxy-2-methylisoquinolin-1(2H)-one] | 0.01 to 15 | 0.9 | 52 | 58 | 92 | 90 | 16 to 50 | 0.01 to 15 | 16 to 50 |
| CN(c1ccc(-c2cc3nccnc3cc2O)nn1)[C@H]1C[C@@H]2CC[C@@H](N2)[C@H]1F [Compound 88B, 7-(6-(((1R,2R,3S,5S)-2-fluoro-8-azabicyclo[3.2.1]octan-3-yl)(methyl)amino)pyridazin-3-yl)quinoxalin-6-ol] | 0.01 to 15 | 6.88 | 50.5 | 7 | 84 | 93 | 16 to 50 | 16 to 50 | 16 to 50 |
| CN(c1ccc(-c2ccc(-c3cc[nH]n3)cc2O)nn1)[C@H]1C[C@@H]2CC[C@@H](N2)[C@H]1F (single isomer, unassigned) [Compound 33B] | 0.01 to 15 | 1.75 | 53 | 30 | 87 | 82 | 16 to 50 | 0.01 to 15 | 0.01 to 15 |
| CN(c1ccc(-c2ccc(-c3cnc(C#N)cn3)cc2O)nn1)[C@H]1C[C@@H]2CCC[C@@H](N2)[C@H]1F [Compound 28B, 5-(4-(6-(((1R,2R,3S,5S)-2-fluoro-9-azabicyclo[3.3.1]nonan-3-yl)(methyl)amino)pyridazin-3-yl)-3-hydroxyphenyl) pyrazine-2-carbonitrile] | 0.01 to 15 | 1.11 | 38.9 | 35 | 36 | 70 | 0.01 to 15 | 16 to 50 | 0.01 to 15 |
| CN(c1ccc(-c2cc3cnn(C)c3cc2O)nn1)[C@H]1C[C@@H]2CC[C@@H](N2)[C@H]1F [Compound 76B, 5-(6-(((1R,2R,3S,5S)-2-fluoro-8-azabicyclo[3.2.1]octan-3-yl)(methyl)amino)pyridazin-3-yl)-1-methyl-1H-indazol-6-ol] | 0.01 to 15 | 3.97 | 60.3 | 15 | 84 | 93 | 16 to 50 | 0.01 to 15 | 16 to 50 |
| CN(c1ccc(-c2cc3oc(=O)n(C)c3cc2O)nn1)[C@@H]1C[C@H]2CC[C@H](N2)[C@@H]1F (single isomer, unassigned) [Compound 79A] | 0.01 to 15 | 2.51 | 34.9 | 14 | 89 | 99 | 16 to 50 | 0.01 to 15 | 16 to 50 |
| CN(c1ccc(-c2cc3cnn(C)c3cc2O)nn1)[C@@H]1C[C@H]2CC[C@H](N2)[C@@H]1F [Compound 76A, 5-(6-(((1S,2S,3R,5R)-2-fluoro-8-azabicyclo[3.2.1]octan-3-yl)(methyl)amino)pyridazin-3-yl)-1-methyl-1H-indazol-6-ol] | 16 to 50 | 5.55 | 69.2 | 12 | 83 | 88 | 101 to 500 | 16 to 50 | 101 to 500 |

— US12509460B2 (Skyhawk Therapeutics, Inc., priority 2019, dated 2025)
